Test results: ChEMBL document CHEMBL5543164 (J Med Chem, 2024)
Blank lines part the entries; values can stand above or below the compound they belong to.

What was measured:
[1] = molecular target: Serine/threonine-protein kinase mTOR (Homo sapiens, UniProt P42345)
[2] = system: MCF7; test: Antiproliferative activity against human MCF7 cells assessed as inhibition of cell growth incubated for 48 hrs by CCK-8 assay; format: functional, cell-based; settings: MCF7, 48 h
[3] = system: MDA-MB-231; test: Antiproliferative activity against human MDA-MB-231 cells assessed as inhibition of cell growth incubated for 48 hrs by CCK-8 assay; format: functional, cell-based; settings: MDA-MB-231, 48 h
[4] = system: HepG2; test: Antiproliferative activity against human HepG2 cells assessed as inhibition of cell growth incubated for 48 hrs by CCK-8 assay; format: functional, cell-based; settings: HepG2, 48 h
[5] = system: HeLa; test: Antiproliferative activity against human HeLa cells assessed as inhibition of cell growth incubated for 48 hrs by CCK-8 assay; format: functional, cell-based
[6] = system: HCT-116; test: Antiproliferative activity against human HCT-116 cells assessed as inhibition of cell growth incubated for 48 hrs by CCK-8 assay; format: functional, cell-based; settings: HCT-116, 48 h
[7] = system: CNE-2; test: Antiproliferative activity against human CNE-2 cells assessed as inhibition of cell growth incubated for 48 hrs by CCK-8 assay; format: functional, cell-based; settings: CNE-2, 48 h
[8] = molecular target: Phosphatidylinositol 4,5-bisphosphate 3-kinase catalytic subunit gamma isoform (Homo sapiens, UniProt P48736); test: Inhibition of PI3Kgamma (unknown origin) by ADP-glo plus luminescence assay
[9] = molecular target: Phosphatidylinositol 4,5-bisphosphate 3-kinase catalytic subunit beta isoform (Homo sapiens, UniProt P42338)
[10] = molecular target: T1, Phosphatidylinositol 4,5-bisphosphate 3-kinase catalytic subunit delta isoform (Homo sapiens, UniProt O00329)
T1 sequence (O00329 whole entry): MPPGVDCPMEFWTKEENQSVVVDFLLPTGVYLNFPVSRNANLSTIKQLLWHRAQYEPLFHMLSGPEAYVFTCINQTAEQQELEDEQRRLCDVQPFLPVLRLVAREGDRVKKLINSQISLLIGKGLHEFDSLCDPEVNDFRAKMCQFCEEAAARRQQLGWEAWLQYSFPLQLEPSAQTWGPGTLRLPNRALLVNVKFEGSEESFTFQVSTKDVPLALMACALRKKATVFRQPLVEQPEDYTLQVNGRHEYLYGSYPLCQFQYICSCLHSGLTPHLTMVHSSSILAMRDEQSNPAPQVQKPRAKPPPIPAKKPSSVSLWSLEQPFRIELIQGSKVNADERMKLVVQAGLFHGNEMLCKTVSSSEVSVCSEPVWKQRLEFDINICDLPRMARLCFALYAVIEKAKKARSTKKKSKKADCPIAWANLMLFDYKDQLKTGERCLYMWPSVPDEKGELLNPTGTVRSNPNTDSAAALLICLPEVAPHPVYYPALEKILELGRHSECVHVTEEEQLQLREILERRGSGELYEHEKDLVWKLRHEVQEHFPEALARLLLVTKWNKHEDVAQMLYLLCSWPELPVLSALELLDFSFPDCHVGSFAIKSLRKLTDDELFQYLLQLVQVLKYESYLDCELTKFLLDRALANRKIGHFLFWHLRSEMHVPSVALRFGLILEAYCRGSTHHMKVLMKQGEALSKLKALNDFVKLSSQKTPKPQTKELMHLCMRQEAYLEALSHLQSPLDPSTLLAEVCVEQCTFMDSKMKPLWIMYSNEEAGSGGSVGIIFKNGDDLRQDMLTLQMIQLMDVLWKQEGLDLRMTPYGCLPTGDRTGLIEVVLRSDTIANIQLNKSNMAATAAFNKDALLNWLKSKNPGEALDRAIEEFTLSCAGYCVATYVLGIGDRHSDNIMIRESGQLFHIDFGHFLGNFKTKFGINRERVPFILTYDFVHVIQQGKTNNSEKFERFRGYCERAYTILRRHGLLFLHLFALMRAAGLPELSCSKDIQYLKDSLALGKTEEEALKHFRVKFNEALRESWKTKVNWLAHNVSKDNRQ

[11] = molecular target: Phosphatidylinositol 4,5-bisphosphate 3-kinase catalytic subunit alpha isoform (Homo sapiens, UniProt P42336); test: Inhibition of PI3Kalpha (unknown origin) by ADP-glo plus luminescence assay
[12] = molecular target: T2, Cytochrome P450 1A2 (Homo sapiens, UniProt P05177); test: Inhibition of CYP1A2 (unknown origin); format: ADME
T2 sequence (P05177 whole entry): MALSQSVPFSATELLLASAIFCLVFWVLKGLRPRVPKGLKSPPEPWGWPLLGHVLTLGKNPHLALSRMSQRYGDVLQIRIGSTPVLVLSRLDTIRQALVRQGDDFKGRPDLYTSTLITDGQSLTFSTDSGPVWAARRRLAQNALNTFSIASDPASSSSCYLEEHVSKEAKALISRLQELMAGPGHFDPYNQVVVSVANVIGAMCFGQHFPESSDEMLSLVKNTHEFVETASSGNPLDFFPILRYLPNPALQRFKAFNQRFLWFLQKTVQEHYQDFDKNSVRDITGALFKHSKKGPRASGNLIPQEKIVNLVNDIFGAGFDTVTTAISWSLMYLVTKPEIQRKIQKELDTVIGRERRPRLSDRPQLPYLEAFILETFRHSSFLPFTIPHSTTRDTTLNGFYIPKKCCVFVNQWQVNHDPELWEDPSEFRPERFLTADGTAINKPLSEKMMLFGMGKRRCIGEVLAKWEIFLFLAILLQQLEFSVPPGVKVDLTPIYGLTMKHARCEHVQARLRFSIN

[13] = molecular target: Cytochrome P450 2C9 (Homo sapiens, UniProt P11712); test: Inhibition of CYP2C9 (unknown origin); format: ADME
[14] = molecular target: Cytochrome P450 2C19 (Homo sapiens, UniProt P33261); test: Inhibition of CYP2C19 (unknown origin); format: ADME
[15] = molecular target: Cytochrome P450 2D6 (Homo sapiens, UniProt P10635); test: Inhibition of CYP2D6 (unknown origin); format: ADME
[16] = molecular target: Cytochrome P450 3A4 (Homo sapiens, UniProt P08684); test: Inhibition of CYP3A4-M (unknown origin); format: ADME
[17] = molecular target: Voltage-gated inwardly rectifying potassium channel KCNH2 (Homo sapiens, UniProt Q12809); test: Inhibition of hERG; format: toxicity
Voltage-gated inwardly rectifying potassium channel KCNH2, sequence (Q12809 whole entry): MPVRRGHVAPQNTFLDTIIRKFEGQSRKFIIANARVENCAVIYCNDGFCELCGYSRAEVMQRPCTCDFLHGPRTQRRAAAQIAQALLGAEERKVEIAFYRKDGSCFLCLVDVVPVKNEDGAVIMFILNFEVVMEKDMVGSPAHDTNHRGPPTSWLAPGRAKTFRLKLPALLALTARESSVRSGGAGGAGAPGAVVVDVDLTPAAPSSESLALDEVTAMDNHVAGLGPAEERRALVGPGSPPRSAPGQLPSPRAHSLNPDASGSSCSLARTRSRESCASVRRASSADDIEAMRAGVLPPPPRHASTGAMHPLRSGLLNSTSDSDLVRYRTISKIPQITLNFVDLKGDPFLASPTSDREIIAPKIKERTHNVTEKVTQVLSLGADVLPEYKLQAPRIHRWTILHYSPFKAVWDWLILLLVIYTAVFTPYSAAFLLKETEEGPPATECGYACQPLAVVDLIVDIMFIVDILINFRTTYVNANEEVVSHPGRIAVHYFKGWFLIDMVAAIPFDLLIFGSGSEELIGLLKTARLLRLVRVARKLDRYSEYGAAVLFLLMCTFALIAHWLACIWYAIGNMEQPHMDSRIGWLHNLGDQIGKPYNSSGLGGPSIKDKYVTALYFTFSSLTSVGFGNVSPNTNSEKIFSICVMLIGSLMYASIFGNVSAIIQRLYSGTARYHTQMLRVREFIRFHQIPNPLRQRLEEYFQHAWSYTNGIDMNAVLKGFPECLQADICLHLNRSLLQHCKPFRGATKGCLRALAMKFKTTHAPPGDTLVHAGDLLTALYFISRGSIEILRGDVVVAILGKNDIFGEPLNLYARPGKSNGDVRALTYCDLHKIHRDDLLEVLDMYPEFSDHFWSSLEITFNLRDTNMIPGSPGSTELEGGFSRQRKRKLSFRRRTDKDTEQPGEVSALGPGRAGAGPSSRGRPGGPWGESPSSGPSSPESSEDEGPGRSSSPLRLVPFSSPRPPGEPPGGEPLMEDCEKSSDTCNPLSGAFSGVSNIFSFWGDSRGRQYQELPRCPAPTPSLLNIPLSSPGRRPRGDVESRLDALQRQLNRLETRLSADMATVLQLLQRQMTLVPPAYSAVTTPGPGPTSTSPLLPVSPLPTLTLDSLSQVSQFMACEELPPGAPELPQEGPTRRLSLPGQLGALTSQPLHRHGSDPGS

Phosphatidylinositol 4,5-bisphosphate 3-kinase catalytic subunit beta isoform, sequence (P42338 whole entry, canonical isoform): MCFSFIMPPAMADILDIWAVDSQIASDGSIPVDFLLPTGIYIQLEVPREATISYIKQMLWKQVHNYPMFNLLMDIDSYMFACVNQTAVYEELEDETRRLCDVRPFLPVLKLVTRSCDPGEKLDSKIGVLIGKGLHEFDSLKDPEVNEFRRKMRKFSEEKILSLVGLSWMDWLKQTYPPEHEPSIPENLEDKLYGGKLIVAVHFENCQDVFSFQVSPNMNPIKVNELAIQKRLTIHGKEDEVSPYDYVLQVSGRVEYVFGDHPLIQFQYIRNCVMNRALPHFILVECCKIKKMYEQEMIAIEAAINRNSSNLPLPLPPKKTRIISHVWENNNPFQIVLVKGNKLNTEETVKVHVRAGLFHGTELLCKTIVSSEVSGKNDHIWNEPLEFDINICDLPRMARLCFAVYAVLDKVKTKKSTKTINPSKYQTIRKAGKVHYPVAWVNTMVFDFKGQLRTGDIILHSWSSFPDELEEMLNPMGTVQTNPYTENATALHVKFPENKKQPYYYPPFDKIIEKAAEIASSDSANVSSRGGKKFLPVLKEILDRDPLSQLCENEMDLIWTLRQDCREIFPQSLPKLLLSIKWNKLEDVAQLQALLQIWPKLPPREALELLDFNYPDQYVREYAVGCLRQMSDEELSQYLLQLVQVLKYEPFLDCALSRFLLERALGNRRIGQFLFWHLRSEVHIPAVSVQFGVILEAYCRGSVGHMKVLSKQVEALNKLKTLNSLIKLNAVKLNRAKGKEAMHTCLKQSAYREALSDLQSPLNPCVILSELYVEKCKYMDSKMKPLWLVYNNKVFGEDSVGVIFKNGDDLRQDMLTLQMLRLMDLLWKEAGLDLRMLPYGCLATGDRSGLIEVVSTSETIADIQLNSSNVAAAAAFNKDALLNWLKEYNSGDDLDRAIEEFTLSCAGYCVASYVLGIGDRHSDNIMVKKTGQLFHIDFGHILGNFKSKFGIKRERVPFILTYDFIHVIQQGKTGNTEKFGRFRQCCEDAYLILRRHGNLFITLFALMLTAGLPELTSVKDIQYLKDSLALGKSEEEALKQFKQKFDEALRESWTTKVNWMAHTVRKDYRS
Phosphatidylinositol 4,5-bisphosphate 3-kinase catalytic subunit gamma isoform, sequence (P48736 whole entry, canonical isoform): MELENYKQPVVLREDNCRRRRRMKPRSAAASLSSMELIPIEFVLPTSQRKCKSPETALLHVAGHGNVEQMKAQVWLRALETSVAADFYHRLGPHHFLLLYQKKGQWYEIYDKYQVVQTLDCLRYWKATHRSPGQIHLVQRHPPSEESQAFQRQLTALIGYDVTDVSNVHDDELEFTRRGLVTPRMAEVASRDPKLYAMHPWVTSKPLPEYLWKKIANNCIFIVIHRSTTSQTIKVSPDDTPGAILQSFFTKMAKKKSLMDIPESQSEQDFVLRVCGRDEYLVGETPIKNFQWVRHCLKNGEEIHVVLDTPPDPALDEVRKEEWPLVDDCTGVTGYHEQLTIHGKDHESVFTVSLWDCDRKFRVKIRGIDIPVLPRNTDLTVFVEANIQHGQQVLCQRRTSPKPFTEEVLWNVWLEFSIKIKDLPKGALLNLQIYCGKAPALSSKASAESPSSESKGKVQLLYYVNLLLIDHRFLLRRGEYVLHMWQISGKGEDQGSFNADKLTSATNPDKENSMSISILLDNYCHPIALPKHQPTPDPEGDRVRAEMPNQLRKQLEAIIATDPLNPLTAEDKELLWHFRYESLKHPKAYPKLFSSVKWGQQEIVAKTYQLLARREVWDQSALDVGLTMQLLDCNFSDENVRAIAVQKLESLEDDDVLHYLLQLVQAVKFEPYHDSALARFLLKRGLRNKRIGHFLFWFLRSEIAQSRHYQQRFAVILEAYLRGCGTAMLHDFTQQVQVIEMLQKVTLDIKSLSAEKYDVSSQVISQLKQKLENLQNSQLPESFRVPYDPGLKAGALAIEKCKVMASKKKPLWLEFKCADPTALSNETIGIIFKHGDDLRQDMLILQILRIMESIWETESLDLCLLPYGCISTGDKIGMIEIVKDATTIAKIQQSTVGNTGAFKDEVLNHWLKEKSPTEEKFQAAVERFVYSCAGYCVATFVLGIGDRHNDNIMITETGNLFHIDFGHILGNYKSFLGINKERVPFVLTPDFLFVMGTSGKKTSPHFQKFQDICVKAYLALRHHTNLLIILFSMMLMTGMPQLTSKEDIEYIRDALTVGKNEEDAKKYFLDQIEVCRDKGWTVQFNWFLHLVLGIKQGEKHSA
Cytochrome P450 3A4, sequence (P08684 whole entry): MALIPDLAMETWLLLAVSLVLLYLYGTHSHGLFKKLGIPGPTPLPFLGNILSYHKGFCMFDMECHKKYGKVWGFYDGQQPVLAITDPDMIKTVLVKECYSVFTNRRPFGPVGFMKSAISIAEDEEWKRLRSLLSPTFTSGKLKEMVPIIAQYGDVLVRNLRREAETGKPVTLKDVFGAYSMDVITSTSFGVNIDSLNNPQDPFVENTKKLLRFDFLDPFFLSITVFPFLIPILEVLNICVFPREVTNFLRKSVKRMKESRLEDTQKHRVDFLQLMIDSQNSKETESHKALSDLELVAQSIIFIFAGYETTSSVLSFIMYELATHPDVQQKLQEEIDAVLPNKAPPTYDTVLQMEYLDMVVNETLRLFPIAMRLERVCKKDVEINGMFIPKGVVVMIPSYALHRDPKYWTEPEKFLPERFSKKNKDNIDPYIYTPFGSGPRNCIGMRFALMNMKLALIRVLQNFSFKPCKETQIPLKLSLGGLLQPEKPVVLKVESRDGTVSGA
Cytochrome P450 2C19, sequence (P33261 whole entry): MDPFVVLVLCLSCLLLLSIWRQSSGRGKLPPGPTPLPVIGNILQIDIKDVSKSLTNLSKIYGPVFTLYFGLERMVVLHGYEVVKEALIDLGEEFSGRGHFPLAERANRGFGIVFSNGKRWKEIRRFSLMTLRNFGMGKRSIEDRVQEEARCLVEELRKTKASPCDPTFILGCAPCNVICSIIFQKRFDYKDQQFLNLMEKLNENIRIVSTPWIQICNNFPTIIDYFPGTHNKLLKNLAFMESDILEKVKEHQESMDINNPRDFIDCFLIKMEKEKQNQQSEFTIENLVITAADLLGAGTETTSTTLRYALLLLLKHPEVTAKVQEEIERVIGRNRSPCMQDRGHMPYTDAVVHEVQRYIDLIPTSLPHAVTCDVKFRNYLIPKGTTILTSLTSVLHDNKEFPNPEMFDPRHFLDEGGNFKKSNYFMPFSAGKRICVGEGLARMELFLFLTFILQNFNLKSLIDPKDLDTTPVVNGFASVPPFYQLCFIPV
Cytochrome P450 2D6, sequence (P10635 whole entry): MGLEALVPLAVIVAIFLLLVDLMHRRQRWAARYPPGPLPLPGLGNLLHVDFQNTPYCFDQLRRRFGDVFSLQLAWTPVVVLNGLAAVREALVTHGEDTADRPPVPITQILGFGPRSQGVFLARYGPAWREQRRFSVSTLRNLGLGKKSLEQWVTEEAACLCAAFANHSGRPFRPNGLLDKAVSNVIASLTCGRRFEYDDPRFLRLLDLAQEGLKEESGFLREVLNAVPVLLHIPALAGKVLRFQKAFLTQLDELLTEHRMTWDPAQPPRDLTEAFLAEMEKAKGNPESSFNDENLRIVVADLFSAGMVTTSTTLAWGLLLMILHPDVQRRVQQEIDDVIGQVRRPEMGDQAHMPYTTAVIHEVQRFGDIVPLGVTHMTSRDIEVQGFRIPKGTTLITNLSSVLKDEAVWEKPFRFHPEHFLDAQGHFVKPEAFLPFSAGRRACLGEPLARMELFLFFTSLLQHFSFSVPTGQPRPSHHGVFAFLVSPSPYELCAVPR

Compound: CC(C)(C)OC(=O)N1CC2CCC(C1)N2c1nc(-c2ccc(NC(=O)Nc3ccc4c(c3)COC4=O)cc2)nc(N2CCOCC2)n1
IC50 [1]: 147 nM

Compound: O=C(Nc1ccc(-c2nc(N3CCOCC3)nc(N3CCO[C@H](CO)C3)n2)cc1)Nc1ccc2c(c1)COC2=O
IC50 [8]: 228 nM
IC50 [9]: 93 nM
IC50 [10]: 161 nM

Compound: CC(C)(C)OC(=O)N1C(=O)c2ccc(NC(=O)Nc3ccc(-c4nc(N5CCOCC5)nc(N5CCOCC5)n4)cc3)cc2C1=O
IC50 [11]: 379 nM

Compound: C[C@H]1COCCN1c1nc(-c2ccc(NC(=O)Nc3ccc4c(c3)COC4=O)cc2)nc(N2CCOCC2)n1
IC50 [8]: 725 nM
IC50 [9]: 754 nM
IC50 [10]: 1320 nM

Now from value to compound, other results behind:

IC50 [2]: 1130 nM
IC50 [3]: 11900 nM
IC50 [4]: > 100000 nM
IC50 [5]: 12600 nM
IC50 [6]: 770 nM
IC50 [1]: 20 nM
Compound: O=C(Nc1ccc(-c2nc(N3CCOCC3)nc(N3C4CCC3CNC4)n2)cc1)Nc1ccc2c(c1)COC2=O
IC50 [7]: 2270 nM

IC50 [2]: 1740 nM
IC50 [3]: 3440 nM
IC50 [4]: 5670 nM
IC50 [5]: 6030 nM
IC50 [6]: 5050 nM
IC50 [1]: 4 nM
Compound: C[C@H]1COCCN1c1nc(-c2ccc(NC(=O)Nc3ccc4c(c3)COC4=O)cc2)nc(N2C3CCC2COC3)n1
IC50 [7]: 1080 nM

IC50 [8]: > 10000 nM
IC50 [12]: > 10000 nM
IC50 [13]: > 10000 nM
IC50 [14]: > 10000 nM
IC50 [15]: > 10000 nM
IC50 [16]: > 10000 nM
IC50 [1]: 1.2 nM
IC50 [9]: > 10000 nM
IC50 [10]: > 10000 nM
Compound: O=C(Nc1ccc(-c2nc(N3C4CCC3COC4)nc(N3C4CCC3COC4)n2)cc1)Nc1ccc2c(c1)COC2=O
IC50 [17]: > 30000 nM
